Assay results: publication PMC12295927, “Design, Synthesis, and Testing of 1,2,3-Triazolo-Quinobenzothiazine Hybrids for Cytotoxic and Immunomodulatory Activity” (International Journal of Molecular Sciences, 2025)

How the values were obtained:
[1] = tested on: xenografted MGC-803 tumor; set-up: method as in PMID 30345465; conditions: oral study; cited from earlier work
[2] = tested on: MGC-803 gastric cancer cells; set-up: method as in PMID 30345465; conditions: cited from earlier work
IL8 gene = experiment: RT-qPCR IL8 gene expression in BEAS-2B; type: cell-based; conditions: Homo sapiens, 24 h, reference gene RPL41, vs untreated control, read-out: Relative level of expression, IL8 gene
Procedure: (§1) Real-time polymerase chain reaction was performed for the reference gene RPL41 (ribosomal protein L41) and the tested genes: BCL2, AIFM2, MDM2, IL6 and IL8. […] The BEAS-2B line was selected for the experiment. The expression level of selected genes was measured after 24 h of incubation with the tested substances MJ1–MJ20 at a concentration of 100 μM (Table 3).
(§2) The RT-qPCR experiment was performed for the BEAS-2B cell line. In this experiment, the IL6 and IL8 genes were studied and RPL41 was used as a reference gene (Figure 17 and Figure 18).
(§3) Gene expression studies used quantitative RT-qPCR to assess the effect of the tested quinobenzothiazines (MJ1–MJ20) on the expression of apoptosis-related genes (BCL2, AIFM2, MDM2) and pro-inflammatory cytokines (IL6, IL8) (Table 4).
(§4) BEAS-2B and HCT116 cells were seeded in 6-well plates at 2 × 10^5 cells per well and cultured in RPMI-1640 (BEAS-2B) or DMEM (HCT116) medium supplemented with 10% FBS and 1% penicillin/streptomycin at 37 °C, 5% CO2 and 95% humidity. After 24 h of incubation, the tested compounds were added at a concentration of 100 µM. After 24 h, the medium was removed from the cells, washed with PBS solution, 0.5 mL of trypsin was added per well and after 5 min it was neutralized with medium. The obtained cell suspension was centrifuged for 3 min at 2000 rpm, the supernatant was removed, and the obtained pellet was suspended in 400 µL of phenozol. Samples were frozen at −20 °C and stored until further experiment and RNA isolation.
(§5) Total RNA was isolated from cells using the A&A Biotechnology Total RNA Mini kit according to the manufacturer’s protocol. RNA quality and quantity were assessed using a NanoDrop 2000 spectrophotometer at 260/280 nm. Reverse transcription was performed using the protocol (EURx NG dART RT Kit) to obtain cDNA. After incubation, samples were placed in a freezer (−20 °C) and stored until further analysis.
(§6) The experiment was performed according to the protocol (Brilliant III Ultra Fast SYBR® Green QPCR Master Mix, Quick Reference Guide for the Bio-Rad CFX96 Real-Time PCR Detection System). RT-qPCR reaction was performed using specific primers for target genes (BCL2, AIFM2, MDM2, IL6, IL8). Gene expression was normalized to the expression of the reference gene RPL41. Reaction profiles and results were performed using Bio-Rad CFX Maestro 1.1 software from Bio-Rad. Analysis and calculations of the results obtained during RT-qPCR were performed using Microsoft Excel.
(§7) The results were analyzed using the R = 2^−ΔΔCt method, which allows for determining the relative level of gene expression (R) compared to the control. Each experiment was performed in three technical and biological replicates. RT-qPCR allowed for precise assessment of changes in the expression of genes related to the processes of apoptosis and inflammatory response under the influence of quinobenzothiazines, which allowed for identifying their potential mechanisms of action at the molecular level.

AIFM2 gene = experiment: RT-qPCR AIFM2 gene expression in BEAS-2B; type: cell-based, Human; conditions: Homo sapiens, 24 h, reference gene RPL41, vs untreated control, read-out: Relative level of expression, AIFM2 gene
Procedure: as §1
The RT-qPCR experiment was performed for the BEAS-2B cell line. In this experiment, the AIFM2 gene was studied and RPL41 was used as reference gene (Figure 16).
as §3, §4, §5, §6, §7

BCL2 gene = experiment: RT-qPCR BCL2 gene expression in BEAS-2B; type: cell-based, Human; conditions: Homo sapiens, 24 h, reference gene RPL41, vs untreated control, read-out: Relative level of expression, BCL2 gene
Procedure: as §1
The RT-qPCR experiment was performed for the BEAS-2B cell line. In this experiment, the BCL2 gene was studied, and RPL41 was used as the reference gene (Figure 14).
as §3, §4, §5, §6, §7

BEAS-2B = experiment: Alamar Blue cytotoxicity test, BEAS-2B; type: cell-based, Human; conditions: Homo sapiens, 24 h, 24 h incubation, read-out: IC50 values for BEAS-2B line
Procedure: The cytotoxicity of the tested chemical compounds MJ1–MJ20 was tested using the Alamar Blue test. The experiment was conducted on cell lines BEAS-2B (Figure 7), HCT116 (Figure 8), U2OS (Figure 9), MCF7 (Figure 10), SH-SY5Y (Figure 11), NHDF (Figure 12), and A549 (Figure 13). Cells were seeded in 96-well plates and incubated with the tested compounds for 24 h. The test result is the IC50 parameter, which is a measure of cytotoxic activity expressed by the concentration of the substance that causes the death of half of the analyzed cells compared to the control.
In cytotoxicity studies, the Alamar Blue test was used, which is based on the ability of living cells to reduce the non-fluorescent dye resazurin to fluorescent resorufin, which reflects the metabolic activity of cells. BEAS-2B, NHDF, HCT116, MCF7, A549, SH-SY5Y and U2OS cell lines were cultured under standard conditions, in DMEM medium supplemented with 10% FBS and 1% penicillin/streptomycin, at 37 °C, 5% CO2 and 95% humidity. Cells were seeded in 96-well plates at 1 × 10^4 cells per well and incubated for 24 h. Then, the tested compounds (MJ1–MJ20) were added at different concentrations (from 6.25 µM to 100 µM). The control contained cells untreated with the tested compounds. After 24 h of incubation, 10 µL of Alamar Blue solution was added to each well and incubated for another 2–4 h under the same conditions. The signal was measured spectrophotometrically at wavelengths of 570 nm (for resorufin) and 600 nm (for resazurin) or optionally fluorimetrically, using an excitation maximum of 570 nm and an emission maximum of 585 nm. The results were presented as percentage of cell survival relative to the control, calculating the ratio of absorbance or fluorescence of the sample to the control value. The Alamar Blue assay, due to its sensitivity and non-toxicity, allows for an accurate assessment of metabolic activity and cell survival in response to the tested quinobenzothiazines.

MDM2 gene = experiment: RT-qPCR MDM2 gene expression in BEAS-2B; type: cell-based, Human; conditions: Homo sapiens, 24 h, reference gene RPL41, vs untreated control, read-out: Relative level of expression, MDM2 gene
Procedure: as §1
The RT-qPCR experiment was performed for the BEAS-2B cell line. In this experiment, the MDM2 gene was studied and RPL41 was used as reference gene (Figure 15).
as §3, §4, §5, §6, §7

IL6 gene = experiment: RT-qPCR IL6 gene expression in BEAS-2B; type: cell-based, Human; conditions: Homo sapiens, 24 h, reference gene RPL41, vs untreated control, read-out: Relative level of expression, IL6 gene
Procedure: as §1, §2, §3, §4, §5, §6, §7

In the case of `COc1ccc(-n2cc(CN3c4ccccc4Sc4ccccc43)nn2)cc1` [compound A], the “Growth of xenografted MGC-803 tumor in vivo” value [1] is listed as “effectively inhibit the growth” and the IC50 [2] is listed as 1.2 µM.
Work on `Fc1ccc2c(c1)Sc1cc3ccccc3nc1N2Cc1cn(Cc2ccccc2)nn1` [MJ6, 9-Fluoro-6-[(1-benzyl-1H-1,2,3-triazol-4-yl)-methyl]-quino[3,2-b]benzo[1,4]thiazine] yielded a fold induction at 100 µM (IL8 gene) of 0.1, a fold induction at 100 µM (AIFM2 gene) of 1.8 and a fold induction at 100 µM (BCL2 gene) of 8.5. It also gave an IC50 (BEAS-2B) of 72.9 µM, a fold induction at 100 µM (MDM2 gene) of 5.1 and a fold induction at 100 µM (IL6 gene) of 3.2.
Compound `c1ccc(Cn2cc(CN3c4ccccc4Sc4cc5ccccc5nc43)nn2)cc1` [MJ1] has a fold induction at 100 µM (IL8 gene) of 0.3, a fold induction at 100 µM (AIFM2 gene) of 2.4 and a fold induction at 100 µM (BCL2 gene) of 23. The IC50 (BEAS-2B) was 73.8 µM, the fold induction at 100 µM (MDM2 gene) was 5.4 and the fold induction at 100 µM (IL6 gene) was 3.
With `N#Cc1ccc(Cn2cc(CN3c4ccc(F)cc4Sc4cc5ccccc5nc43)nn2)cc1` [MJ9, 4-((4-((9-Fluoroquino [3,2-b]benzo[1,4]thiazin-6-yl)methyl)-1H-1,2,3-triazol-1-yl)methyl)-benzonitrile] the fold induction at 100 µM (IL8 gene) was 0.9, the fold induction at 100 µM (AIFM2 gene) was 4.5 and the fold induction at 100 µM (BCL2 gene) was 9.8. The IC50 (BEAS-2B) was 73 µM, the fold induction at 100 µM (MDM2 gene) was 5.6 and the fold induction at 100 µM (IL6 gene) was 4.3.
